Data from patent US4540428A (priority 1983, dated 1985).

What was measured:
soil urease [1] = format: biochemical; details: for % Inhibition 40 microgram per gram soil: pH 7.2
urease = details: stated as well known; cited from earlier work
soil urease [2] = assay: Urea hydrolyzed as a function of time in soil at 35° C. (procedure of Example VI, FIG. 1); format: biochemical; details: 10 micrograms of urease inhibitor per gram of soil; for urease inhibiting activity at 35° C. (in words): soil at 35° C. (95° F.), period of 12 days, sampled every two days
Procedure: The drawing is a graph of urea hydrolyzed as a function of time at 35° C. using 10 micrograms of urease inhibitor per gram of soil.
Certain compounds were evaluated to determine their effectiveness as urease inhibitors. The inhibition tests were run in a New York State soil (Cazenovia sandy loam, pH 7.2). Evaluations (run in triplicate) consisted of applying 800 micrograms of test compound in 5 mL of water and 42.8 mg urea in 1 mL of water to 20 g of air-dry soil in a glass bottle. The bottle was capped with perforated aluminum foil and incubated at 25° C. for 3 days prior to extraction with 100 mL of 2M KCl solution containing 0.5 mg of phenylmercuric acetate. The extracts were then analyzed for remaining urea using an autoanalyzer. Percent inhibition was calculated as [formula] where A is urea recovered from unincubated sample (urea added to soil and immediately extracted); B is urea recovered from inhibited sample; and C is urea recovered from the control (uninhibited sample).
Employing the procedure of Example VI, the urease inhibiting activity at 35° C. of the prior art urease inhibitor, phenyl phosphorodiamidate, and N-(2-chloroethyl)phosphoric triamide were evaluated. In the evaluation, soil samples were taken every two days and analyzed for urea content.

| SMILES | % Inhibition 1 microgram per gram soil (soil urease [1]) | % Inhibition 40 microgram per gram soil (soil urease [1]) | inhibitory effect on urease at 25° C. (in words) (urease) | urease inhibiting activity at 35° C. (in words) (soil urease [2]) | time to essentially complete urea hydrolysis (soil urease [2]; soil at 35° C.) |
| --- | --- | --- | --- | --- | --- |
| NP(N)(=O)NCCCl [Experiment 1] | 77% | 100% | – | – | – |
| NP(N)(=O)NCCCBr [Experiment 3] | 83% | 99% | – | – | – |
| NP(N)(=O)Oc1ccccc1 [phenyl phosphorodiamidate] | – | – | excellent inhibitory effect | much less effective | essentially complete urea hydrolysis after only six days |
| NP(N)(=O)NCCCl [Experiment 1, N-2-Chloroethyl Phosphoric Triamide] | – | – | – | excellent inhibitor | – |
